The assay addresses TgCDPK1 (Toxoplasma gondii, UniProt Q9BJF5). In words: biochemical.

Sequence of TgCDPK1 (Q9BJF5 1-507): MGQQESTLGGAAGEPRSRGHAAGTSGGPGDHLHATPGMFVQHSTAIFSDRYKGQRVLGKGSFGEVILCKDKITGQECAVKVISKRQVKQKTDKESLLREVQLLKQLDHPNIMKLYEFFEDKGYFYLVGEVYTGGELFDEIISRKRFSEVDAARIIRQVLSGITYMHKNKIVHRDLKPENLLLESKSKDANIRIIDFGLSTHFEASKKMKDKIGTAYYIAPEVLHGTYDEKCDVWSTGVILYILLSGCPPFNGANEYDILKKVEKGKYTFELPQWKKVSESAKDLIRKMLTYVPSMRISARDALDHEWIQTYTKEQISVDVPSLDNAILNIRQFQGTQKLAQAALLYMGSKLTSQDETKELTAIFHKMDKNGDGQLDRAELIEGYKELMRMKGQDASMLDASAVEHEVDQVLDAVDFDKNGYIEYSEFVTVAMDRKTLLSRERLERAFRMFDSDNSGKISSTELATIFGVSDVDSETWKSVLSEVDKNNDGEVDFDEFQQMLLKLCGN

By IC50 is commonly meant the midpoint of a concentration-inhibition curve. Low values mean higher potency, high ones lower potency. Take `CCOc1ccc2cc(-c3nn(CC4(C#N)CCN(C)CC4)c4ncnc(N)c34)ccc2c1` [Example 75, 4-((4-amino-3-(6-ethoxynaphthalen-2-yl)-1H-pyrazolo[3,4-d]pyrimidin-1-yl)methyl)-1-methylpiperidine-4-carbonitrile]: the half-maximal inhibitory concentration (IC50) amounted to 18.3 nM.
The result for `Nc1ncnc2c1c(-c1ccc3nc(OC4CC4)ccc3c1)nn2CC(O)(C(F)(F)F)C(F)(F)F` [Example 53, 2-((4-amino-3-(2-cyclopropoxyquinolin-6-yl)-1H-pyrazolo[3,4-d]pyrimidin-1-yl)methyl)-1,1,1,3,3,3-hexafluoropropan-2-ol] reads 47.3 nM.
The result for `CCOc1ccc2cc(-c3nn(CC4(O)CN(C)C4)c4ncnc(N)c34)ccc2c1` [Example 97, 3-((4-amino-3-(6-ethoxynaphthalen-2-yl)-1H-pyrazolo[3,4-d]pyrimidin-1-yl)methyl)-1-methylazetidin-3-ol] reads 2.6 nM; that for `CCOc1ccc2cc(-c3nn(CC4(O)CCN(C)CC4)c4ncnc(N)c34)ccc2c1` [Example 71, 4-((4-amino-3-(6-ethoxynaphthalen-2-yl)-1H-pyrazolo[3,4-d]pyrimidin-1-yl)methyl)-1-methylpiperidin-4-ol], 59.3 nM.
The result for `CCOc1ccc2cc(-c3nn(CC4(O)CCNCC4)c4ncnc(N)c34)ccc2c1` [Example 70, 4-((4-amino-3-(6-ethoxynaphthalen-2-yl)-1H-pyrazolo[3,4-d]pyrimidin-1-yl)methyl)piperidin-4-ol] reads 23.3 nM; that for `CCOc1ccc2cc(-c3nn(CC(C)(C)CO)c4ncnc(N)c34)ccc2n1` [Example 37, 3-(4-amino-3-(2-ethoxyquinolin-6-yl)-1H-pyrazolo[3,4-d]pyrimidin-1-yl)-2,2-dimethylpropan-1-ol], 1.7 nM.
Compound `COCc1ccc2cc(-c3nn(CC(O)(C(F)(F)F)C(F)(F)F)c4ncnc(N)c34)ccc2c1` [Example 52, 2-((4-amino-3-(6-(methoxymethyl)naphthalen-2-yl)-1H-pyrazolo[3,4-d]pyrimidin-1-yl)methyl)-1,1,1,3,3,3-hexafluoropropan-2-ol] showed a 50% inhibitory concentration (IC50) of 84.2 nM. Compared with the last compound, the IC50 is about 50-fold higher.
In turn, `Nc1ncnc2c1c(-c1ccc3nc(OCC(F)(F)F)ccc3c1)nn2CC1CCNCC1` [Example 44, 1-(piperidin-4-ylmethyl)-3-(2-(2,2,2-trifluoroethoxy)quinolin-6-yl)-1H-pyrazolo[3,4-d]pyrimidin-4-amine] returned an IC50 of 1.4 nM.
Consider `CC(C)(O)C(C)(C)Cn1nc(-c2ccc3nc(OC4CC4)ccc3c2)c2c(N)ncnc21` [Example 56, 4-(4-amino-3-(2-cyclopropoxyquinolin-6-yl)-1H-pyrazolo[3,4-d]pyrimidin-1-yl)-2,3,3-trimethylbutan-2-ol], for which the midpoint of inhibition, the IC50, lay at 70.8 nM.
With `CC(C)(O)Cn1nc(-c2ccc3cc(OCC#N)ccc3c2)c2c(N)ncnc21` [Example 88, 2-(6-(4-amino-1-(2-hydroxy-2-methylpropyl)-1H-pyrazolo[3,4-d]pyrimidin-3-yl)naphthalen-2-yloxy)acetonitrile], the IC50 was 112 nM. This IC50 lies about 1.6-fold higher than the previous one.
In the case of `CN1CC(O)(Cn2nc(-c3ccc4cc(OC5CC5)ccc4c3)c3c(N)ncnc32)C1` [Example 91, 3-((4-amino-3-(6-cyclopropoxynaphthalen-2-yl)-1H-pyrazolo[3,4-d]pyrimidin-1-yl)methyl)-1-methylazetidin-3-ol], half-maximal inhibition (IC50) was put at 3.8 nM.
In turn, `CN1CCC(O)(Cn2nc(-c3ccc4nc(OC5CC5)ccc4c3)c3c(N)ncnc32)CC1` [Example 85, 4-((4-amino-3-(2-cyclopropoxyquinolin-6-yl)-1H-pyrazolo[3,4-d]pyrimidin-1-yl)methyl)-1-methylpiperidin-4-ol] displayed an IC50 of 21 nM.
On to `N#CC1(Cn2nc(-c3ccc4cc(OC(F)F)ccc4c3)c3c(N)ncnc32)CCNCC1` [Example 100, 4-((4-amino-3-(6-(difluoromethoxy)naphthalen-2-yl)-1H-pyrazolo[3,4-d]pyrimidin-1-yl)methyl)piperidine-4-carbonitrile], for which the IC50 was 2.5 nM. Compared with the last compound, the IC50 is about 8.4-fold lower.
As for `CCOc1ccc2cc(-c3nc(CC4CCNCC4)n4ccnc(N)c34)ccc2c1` [Example 114, 1-(6-ethoxynaphthalen-2-yl)-3-(piperidin-4-ylmethyl)imidazo[1,5-a]pyrazin-8-amine], the IC50 was 10 nM.
The result for `CC(C)(Cn1nc(-c2ccc3cc(OC4CC4)ccc3c2)c2c(N)ncnc21)C(=O)O` [Example 76, 3-(4-amino-3-(6-cyclopropoxynaphthalen-2-yl)-1H-pyrazolo[3,4-d]pyrimidin-1-yl)-2,2-dimethylpropanoic acid] reads 19.4 nM; that for `COCCOc1ccc2cc(-c3nn(CC(C)(C)C)c4ncnc(N)c34)ccc2n1` [Example 38, 3-(2-(2-methoxyethoxy)quinolin-6-yl)-1-neopentyl-1H-pyrazolo[3,4-d]pyrimidin-4-amine], 3.8 nM; that for `Nc1ncnc2c1c(-c1ccc3nc(OC4CC4)ccc3c1)nn2CC1(CO)COC1` [Example 64, (3-((4-amino-3-(2-cyclopropoxyquinolin-6-yl)-1H-pyrazolo[3,4-d]pyrimidin-1-yl)methyl)oxetan-3-yl)methanol], 3.6 nM.
For `COC(=O)COc1ccc2cc(-c3nn(CC4CCNCC4)c4ncnc(N)c34)ccc2n1` [Example 89, methyl 2-(6-(4-amino-1-(piperidin-4-ylmethyl)-1H-pyrazolo[3,4-d]pyrimidin-3-yl)quinolin-2-yloxy)acetate], the half-maximal inhibitory concentration (IC50) was determined as 1440 nM.
With `Nc1ncnc2c1c(-c1ccc3cc(OC4CC4)ccc3c1)nn2CC1(O)CCCC1` [Example 61, 1-((4-amino-3-(6-cyclopropoxynaphthalen-2-yl)-1H-pyrazolo[3,4-d]pyrimidin-1-yl)methyl)cyclopentanol], the IC50 turned out to be 13 nM.
Regarding `Nc1ncnc2c1c(-c1ccc3cc(OC4COC4)ccc3c1)nn2CC1CCOCC1` [Example 31, 3-(6-(oxetan-3-yloxy)naphthalen-2-yl)-1-((tetrahydro-2H-pyran-4-yl)methyl)-1H-pyrazolo[3,4-d]pyrimidin-4-amine], the IC50 came out at 35.8 nM.
`Nc1ncnc2c1c(-c1ccc3nc(OC4CC4)ccc3c1)nn2CC1(O)CCOCC1` [Example 62, 4-((4-amino-3-(2-cyclopropoxyquinolin-6-yl)-1H-pyrazolo[3,4-d]pyrimidin-1-yl)methyl)-tetrahydro-2H-pyran-4-ol] yielded an IC50 of 19.2 nM.
`Nc1ncnc2c1c(-c1ccc3cc(OC4CC4)ccc3c1)nn2CC1(O)CNC1` [Example 90, 3-((4-amino-3-(6-cyclopropoxynaphthalen-2-yl)-1H-pyrazolo[3,4-d]pyrimidin-1-yl)methyl)azetidin-3-ol] displayed an IC50 of 5.1 nM.
`CC(C)(O)Cn1cc(-c2ccc3nc(OC4CC4)ccc3c2)c2c(N)ncnc21` [Example 55, 1-(4-amino-5-(2-cyclopropoxyquinolin-6-yl)-7H-pyrrolo[2,3-d]pyrimidin-7-yl)-2-methylpropan-2-ol] had an IC50 of 3.2 nM.
Consider `CN1CCC(O)(Cn2nc(-c3ccc4cc(OC(F)F)ccc4c3)c3c(N)ncnc32)CC1` [Example 99, 4-((4-amino-3-(6-(difluoromethoxy)naphthalen-2-yl)-1H-pyrazolo[3,4-d]pyrimidin-1-yl)methyl)-1-methylpiperidin-4-ol], for which the IC50 was 35.8 nM. Compared with the last compound, the IC50 is about 11-fold higher.
`CCOc1ccc2cc(-c3nn(CC4(O)CNC4)c4ncnc(N)c34)ccc2c1` [Example 96, 3-((4-amino-3-(6-ethoxynaphthalen-2-yl)-1H-pyrazolo[3,4-d]pyrimidin-1-yl)methyl)azetidin-3-ol] showed an IC50 of 7.8 nM.

The values above are taken from patent publication US10307425B2, “Compositions and methods for treating toxoplasmosis, cryptosporidiosis and other apicomplexan protozoan related diseases” (UNIVERSITY OF WASHINGTON, priority 2015, dated 2019).
